The values that follow come from patent US8524750B2, “(Pyrazol-3-yl)-1,3,4-thiadiazol-2-amine and (pyrazol-3-yl)-1,3,4-thiazol-2-amine compounds” (Glaxo Group Limited, priority 2009, dated 2013).

SMILES strings stand for the structures. Converted amounts (≈) assume the structure as drawn. “And” between values parts separate entries of the source, which are not always exact repeats. Equal values may be shown once. Read-outs that look alike come from different tables or passages of the source. A value given as a limit tells only on which side of the number the result lay.

The subject of assay [1] is Mycobacterium tuberculosis H37Rv. Nature of the assay: Mycobacterium tuberculosis H37Rv Inhibition Assay (Whole Cell Assay). Format: cell-based. The following applies: ATCC 25618 / H37Rv, H37Rv strain (ATCC25618), Middlebrook 7H9, six days at 37° C., resazurin fluorescence after 48 hours. In general terms: The colour change of resazurin is a common sign of viable cells or microbes.

The target of assay [2] is T1, Mycobacterium tuberculosis InhA (Mycobacterium tuberculosis, UniProt P9WGR1).
T1 construct: made in house; host or cells: E. coli
As to the kind of experiment: Mycobacterium tuberculosis InhA Inhibition Assay (Enzyme Assay). Format: biochemical. The following applies: 5 nM InhA, 50 μM DDCoA, 50 μM NADH, PIPES buffer pH 6.8, initial velocities of NADH consumption. The procedure: Mycobacterium tuberculosis InhA Inhibition Assay (Enzyme Assay)
InhA is able to reduce 2-trans enoyl-CoA esters with concomitant oxidation of NADH to NAD^+. The assay format is based on the kinetic detection of NADH consumption.
Assay for InhA inhibition is carried out with mycobacterium recombinant protein expressed and purified form E. coli. Standard assay conditions for the determination of kinetic constants and inhibitors activity use 5 nM of InhA, 50 μM of Dodecenoyl-CoA synthesized and purified as described by Quernard et al (DDCoA) and 50 μM of NADH as substrates, and it is carried out in 30 mM PIPES buffer pH 6.8, containing 0.05% of BSA. […] Triclosan is used as positive control in every experiment. One μl of compounds is added to the wells containing 25 μl of the DDCoA+NADH mix, the reaction is started by adding 50 μl of the enzyme solution. Fluorescence from NADH is followed at room temperature during 20 minutes in a fluorescent plate reader (excitation at 340 nm; emission at 480 nm). IC50 values are determined using initial velocities of NADH consumption.
Quernard A, Sacchettini J C, Dessen A, et al. Enzymatic characterization of the target for isoniazid in Mycobacterium tuberculosis. Biochemistry 1995; 34:8235-41.

T1 sequence (P9WGR1 whole entry, looked up): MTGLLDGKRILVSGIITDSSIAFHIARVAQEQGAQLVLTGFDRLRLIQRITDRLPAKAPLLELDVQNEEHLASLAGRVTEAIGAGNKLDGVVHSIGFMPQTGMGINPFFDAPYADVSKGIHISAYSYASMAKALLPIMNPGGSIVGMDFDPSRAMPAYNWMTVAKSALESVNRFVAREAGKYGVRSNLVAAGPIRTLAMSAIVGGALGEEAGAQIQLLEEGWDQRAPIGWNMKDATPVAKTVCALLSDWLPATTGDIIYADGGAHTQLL

One may read the MIC as the lowest concentration found to suppress growth. A lower MIC goes with a more susceptible organism. The term IC50 denotes the concentration that gives 50% inhibition. For `Cc1cc(C)n(C(C)c2nnc(Nc3ccn(Cc4c(F)cccc4Cl)n3)s2)n1` (racemic) [Example 28, N-{1-[(2-chloro-6-fluorophenyl)methyl]-1H-pyrazol-3-yl}-5-[1-(3,5-dimethyl-1H-pyrazol-1-yl)ethyl]-1,3,4-thiadiazol-2-amine], the MIC in assay [1] is ≤ 1 µM. For the same compound, in assay [2] (read-out: IC50 value), the IC50 is < 116 nM.
As for `Cc1csc(C(C)(O)c2nnc(Nc3ccn(Cc4c(F)cccc4Cl)n3)s2)n1` (racemic) [Example 30, 1-[5-({1-[(2-chloro-6-fluorophenyl)methyl]-1H-pyrazol-3-yl}amino)-1,3,4-thiadiazol-2-yl]-1-(4-methyl-1,3-thiazol-2-yl)ethanol], in assay [1], the MIC is ≤ 1 µM. Besides, the IC50 in assay [2] (read-out: IC50 value) is < 111 nM.
The matching figures for `Cc1ccn(C(C)c2nnc(Nc3ccn(Cc4c(F)cccc4Cl)n3)s2)n1` (racemic) [Example 38, N-{1-[(2-chloro-6-fluorophenyl)methyl]-1H-pyrazol-3-yl}-5-[1-(3-methyl-1H-pyrazol-1-yl)ethyl]-1,3,4-thiadiazol-2-amine]: ≤ 1 µM and < 120 nM.
`Cc1csc(C(C)(O)c2nnc(Nc3ccn(Cc4c(F)cccc4F)n3)s2)n1` (racemic) [Example 78, 1-[5-({1-[(2,6-difluorophenyl)methyl]-1H-pyrazol-3-yl}amino)-1,3,4-thiadiazol-2-yl]-1-(4-methyl-1,3-thiazol-2-yl)ethanol]: in assay [1], the MIC is ≤ 1 µM. Also, the IC50 in assay [2] (IC50 value) is < 115 nM.
For `Cc1ccn([C@H](C)c2nnc(Nc3ccn(Cc4c(F)cccc4Cl)n3)s2)n1` (single isomer, unassigned) [Example 66], in assay [1], the MIC was 1 to 4 µM (≈ 0.418 to 1.67 µg/mL). The IC50 in assay [2] (read-out: IC50 value) was < 120 nM.
On to `Cc1ccn([C@@H](C)c2nnc(Nc3ccn(Cc4c(F)cccc4Cl)n3)s2)n1` (single isomer, unassigned) [Example 67], for which the MIC in assay [1] was 1 to 4 µM (≈ 0.418 to 1.67 µg/mL). For the same compound, the IC50 in assay [2] (read-out: IC50 value) is < 120 nM.
On the same counts, the results for `Cc1cc(C)n([C@H](C)c2nnc(Nc3ccn(Cc4c(F)cccc4Cl)n3)s2)n1` (single isomer, unassigned) [Example 68] are > 10 µM and < 116 nM.
In the case of `Cc1cc(C)n([C@@H](C)c2nnc(Nc3ccn(Cc4c(F)cccc4Cl)n3)s2)n1` (single isomer, unassigned) [Example 69], the MIC in assay [1] was 1 to 4 µM (≈ 0.432 to 1.73 µg/mL). Moreover, the IC50 in assay [2] (read-out: IC50 value) is < 116 nM.
Take `Cc1csc([C@](C)(O)c2nnc(Nc3ccn(Cc4c(F)cccc4Cl)n3)s2)n1` (single isomer, unassigned) [Example 70]: the MIC in assay [1] is ≤ 1 µM. Also, in assay [2] (read-out: IC50 value), the half-inhibitory concentration (IC50) was < 111 nM.
On the same counts, the results for `Cc1csc([C@@](C)(O)c2nnc(Nc3ccn(Cc4c(F)cccc4Cl)n3)s2)n1` (single isomer, unassigned) [Example 71] are 1 to 4 µM (≈ 0.451 to 1.8 µg/mL) and < 111 nM.
As for `Cc1csc([C@](C)(O)c2nnc(Nc3ccn(Cc4c(F)cccc4F)n3)s2)n1` (single isomer, unassigned) [Example 89], the IC50 in assay [2] (IC50 value) was 4.6 nM and < 115 nM.
With `Cc1csc([C@@](C)(O)c2nnc(Nc3ccn(Cc4c(F)cccc4F)n3)s2)n1` (single isomer, unassigned) [Example 90], the MIC in assay [1] is > 10 µM. Moreover, in assay [2] (IC50 value), the IC50 fell in the range of 115 to 230 nM.
As for `Cc1cc(C)n(C(C)c2nnc(Nc3ccn(Cc4ccccc4C(F)(F)F)n3)s2)n1` (centres unmarked) [Example 1, 5-[1-(3,5-dimethyl-1H-pyrazol-1-yl)ethyl]-N-(1-{[2-(trifluoromethyl)phenyl]methyl}-1H-pyrazol-3-yl)-1,3,4-thiadiazol-2-amine], the MIC in assay [1] was 4 to 10 µM (≈ 1.79 to 4.47 µg/mL). In addition, in assay [2] (read-out: IC50 value), the IC50 is < 112 nM.
Turning to `Cc1cc(C)n(C(C)c2nnc(Nc3ccn(Cc4cc(Cl)ccc4Cl)n3)s2)n1` (centres unmarked) [Example 2, N-{1-[(2,5-dichlorophenyl)methyl]-1H-pyrazol-3-yl}-5-[1-(3,5-dimethyl-1H-pyrazol-1-yl)ethyl]-1,3,4-thiadiazol-2-amine], the MIC in assay [1] is > 10 µM. Besides, the IC50 in assay [2] (read-out: IC50 value) was < 112 nM.
Turning to `Cc1cc(C)n(C(C)c2nnc(Nc3ccn(Cc4ccccc4Br)n3)s2)n1` (centres unmarked) [Example 3, N-{1-[(2-bromophenyl)methyl]-1H-pyrazol-3-yl}-5-[1-(3,5-dimethyl-1H-pyrazol-1-yl)ethyl]-1,3,4-thiadiazol-2-amine], in assay [1], the MIC is 1 to 4 µM (≈ 0.458 to 1.83 µg/mL). Further, the IC50 in assay [2] (read-out: IC50 value) is < 109 nM.
With `Cc1ccn(C(C)c2nnc(Nc3ccn(Cc4cc(Cl)ccc4Cl)n3)s2)n1` (centres unmarked) [Example 4, N-{1-[(2,5-dichlorophenyl)methyl]-1H-pyrazol-3-yl}-5-[1-(3-methyl-1H-pyrazol-1-yl)ethyl]-1,3,4-thiadiazol-2-amine], the MIC in assay [1] was 4 to 10 µM (≈ 1.74 to 4.34 µg/mL). Further, in assay [2] (read-out: IC50 value), the IC50 was < 115 nM.
On the same counts, the results for `Cc1ccn(C(C)c2nnc(Nc3ccn(Cc4ccccc4Br)n3)s2)n1` (centres unmarked) [Example 5, N-{1-[(2-bromophenyl)methyl]-1H-pyrazol-3-yl}-5-[1-(3-methyl-1H-pyrazol-1-yl)ethyl]-1,3,4-thiadiazol-2-amine] are 4 to 10 µM (≈ 1.78 to 4.44 µg/mL) and < 113 nM.
In assay [1], `Cc1cc(C)n(C(C)c2nnc(Nc3ccn(Cc4ccccc4F)n3)s2)n1` (centres unmarked) [Example 6, 5-[1-(3,5-dimethyl-1H-pyrazol-1-yl)ethyl]-N-{1-[(2-fluorophenyl)methyl]-1H-pyrazol-3-yl}-1,3,4-thiadiazol-2-amine] came in with an MIC of 1 to 4 µM (≈ 0.397 to 1.59 µg/mL). The IC50 in assay [2] (read-out: IC50 value) is < 126 nM.
Regarding `Cc1cc(C)n(C(C)c2nnc(Nc3ccn(Cc4cccc(Cl)c4F)n3)s2)n1` (centres unmarked) [Example 7, N-{1-[(3-chloro-2-fluorophenyl)methyl]-1H-pyrazol-3-yl}-5-[1-(3,5-dimethyl-1H-pyrazol-1-yl)ethyl]-1,3,4-thiadiazol-2-amine], the MIC in assay [1] was ≤ 1 µM. Besides, the IC50 in assay [2] (read-out: IC50 value) is < 116 nM.
Take `Cc1cc(C)n(C(C)c2nnc(Nc3ccn(Cc4cc(C(F)(F)F)ccc4C(F)(F)F)n3)s2)n1` (centres unmarked) [Example 8, N-(1-{[2,5-bis(trifluoromethyl)phenyl]methyl}-1H-pyrazol-3-yl)-5-[1-(3,5-dimethyl-1H-pyrazol-1-yl)ethyl]-1,3,4-thiadiazol-2-amine]: the MIC in assay [1] is > 10 µM. In assay [2] (read-out: IC50 value), the IC50 was < 97 nM.
As to `Cc1cc(C)n(C(C)c2nnc(Nc3ccn(Cc4cc(F)ccc4C(F)(F)F)n3)s2)n1` (centres unmarked) [Example 9, 5-[1-(3,5-dimethyl-1H-pyrazol-1-yl)ethyl]-N-(1-{[5-fluoro-2-(trifluoromethyl)phenyl]methyl}-1H-pyrazol-3-yl)-1,3,4-thiadiazol-2-amine], in assay [1], the MIC is > 10 µM. Also, the IC50 in assay [2] (read-out: IC50 value) is < 107 nM.
The matching figures for `Cc1cc(C)n(C(C)c2nnc(Nc3ccn(Cc4cccc(F)c4F)n3)s2)n1` (centres unmarked) [Example 10, N-{1-[(2,3-difluorophenyl)methyl]-1H-pyrazol-3-yl}-5-[1-(3,5-dimethyl-1H-pyrazol-1-yl)ethyl]-1,3,4-thiadiazol-2-amine]: ≤ 1 µM and < 120 nM.
Consider `Cc1cc(C)n(C(C)c2nnc(Nc3ccn(Cc4cc(C(F)(F)F)ccc4Cl)n3)s2)n1` (centres unmarked) [Example 11, N-(1-{[2-chloro-5-(trifluoromethyl)phenyl]methyl}-1H-pyrazol-3-yl)-5-[1-(3,5-dimethyl-1H-pyrazol-1-yl)ethyl]-1,3,4-thiadiazol-2-amine], for which the MIC in assay [1] was > 10 µM. For the same compound, the half-maximal inhibitory concentration (IC50) in assay [2] (read-out: IC50 value) was < 104 nM.
Consider `Cc1cc(C)n(C(C)c2nnc(Nc3ccn(Cc4c(F)cccc4F)n3)s2)n1` (centres unmarked) [Example 12, N-{1-[(2,6-difluorophenyl)methyl]-1H-pyrazol-3-yl}-5-[1-(3,5-dimethyl-1H-pyrazol-1-yl)ethyl]-1,3,4-thiadiazol-2-amine], for which the MIC in assay [1] is ≤ 1 µM. Further, the IC50 in assay [2] (read-out: IC50 value) is < 120 nM.
For the compound `Cc1ccn(C(C)c2nnc(Nc3ccn(Cc4cccc(C)c4F)n3)s2)n1` (centres unmarked) [Example 13, N-{1-[(2-fluoro-3-methylphenyl)methyl]-1H-pyrazol-3-yl}-5-[1-(3-methyl-1H-pyrazol-1-yl)ethyl]-1,3,4-thiadiazol-2-amine], in assay [1], the MIC was ≤ 1 µM. Moreover, the IC50 in assay [2] (read-out: IC50 value) is < 126 nM.
Compound `Cc1ccn(C(C)c2nnc(Nc3ccn(Cc4cccc(Cl)c4F)n3)s2)n1` (centres unmarked) [Example 14, N-{1-[(3-chloro-2-fluorophenyl)methyl]-1H-pyrazol-3-yl}-5-[1-(3-methyl-1H-pyrazol-1-yl)ethyl]-1,3,4-thiadiazol-2-amine] registered an MIC in assay [1] of 1 to 4 µM (≈ 0.418 to 1.67 µg/mL). The IC50 in assay [2] (read-out: IC50 value) was < 120 nM.
Regarding `Cc1cc([N+](=O)[O-])nn1Cc1nnc(Nc2ccn(Cc3c(Cl)cccc3Cl)n2)s1` [Example 65, N-{1-[(2,6-dichlorophenyl)methyl]-1H-pyrazol-3-yl}-5-[1-(5-methyl-3-nitro-1H-pyrazol-1-yl)methyl]-1,3,4-thiadiazol-2-amine], the IC50 in assay [2] (read-out: IC50 value) was > 1070 nM.
Take `Cc1csc(C(C)(O)c2nnc(Nc3ccn(Cc4cccc(N)c4F)n3)s2)n1` (centres unmarked) [Example 88, 1-[5-({1-[(3-amino-2-fluorophenyl)methyl]-1H-pyrazol-3-yl}amino)-1,3,4-thiadiazol-2-yl]-1-(4-methyl-1,3-thiazol-2-yl)ethanol]: in assay [2] (read-out: IC50 value), the IC50 was < 116 nM.
